Data on one compound can be found in patent US20230065158A1, “OXABICYCLOHEPTANES FOR TREATMENT OF SMALL CELL LUNG CANCER” (Lixte Biotechnology, Inc., priority 2021, published 2023).

Where two headings read alike, the source gives them in different places.

Series [1] relates to H69 cells. In words: Cell Counting Kit-8 cytotoxicity and drug combination, H69. As to the method: A Mann-Whitney U test was used for comparison between the normal and SCLC samples. FIG. 1B: IHC for PP2A was conducted on TMA tissue sections and images were captured at 4× or 20× using a 3D-Histech PANNORAMIC SCAN whole slide scanner (3D-Histech, Budapest, Hungary). […] TMAs were scored in normal (n=24) and tumor (n=79) cores on a scale from 0 (no staining/no protein expression) to 3+(strong staining/high protein expression). FIG. 1C: Summary bar graph of the average PP2A subunit staining. IHC staining intensity of normal and tumor cores. […] FIG. 1D: In order to compare the expression of PP2A subunits A and C, cell lysates from seven SCLC cell lines and HBEC 3KT (non-malignant cell line) were subjected to western blotting. FIG. 1E: PP2A activity was determined using a serine/threonine phosphatase activity assay (Millipore) after 24 h exposure to cantharidin (10 μM) and LB-100 (5 μM). […] The Cell Counting Kit-8 assay detected cell H524 and H69 cell viability. […] FIGS. 1I-1K: Graphs depict the mean+SEM of percent viability for cells (n=3). Colony formation assays were used to count the ability of H524 (FIGS. 11 and 1J) and H69 (FIGS. 1K and 1L) cells to form colonies. […] Representative images of colonies at 4× are shown under the graph (n=2).*p<0.05; **, p<0.01; *** p<0.001; ****, p<0.0001. Experiments were repeated in triplicate and representative data are shown.
For orientation: Tetrazolium dyes change colour on reduction, which living cells bring about.

Series [2] concerns H69 cells. The series is described as follows: BiOLOG Phenotype Microarray carbon substrate utilization. Type of series: cell-based. As to conditions: LB100 20 μM overnight. The source says: (§1) FIGS. 4A-4F depict a reactome pathway analysis of PamGene PTKs and STKs after LB-100 treatment of H524 cells and Biolog phenotype MicroArray. […] Table includes 10 carbon sources affected by LB-100 (n=3). […] P<0.001 (***) for control (untreated cells) vs. LB-100. FIG. 4D: Amplex Red Glucose/Oxidase assay kit was used to measure glucose level in cell culture media. […] Glucose concentration detected in initial medium and counted as 100%. Subtracting final medium level of glucose from initial glucose medium concentration yielded % glucose in the medium with cells (n=3). Effect of LB-100 on MET phosphorylation. FIG. 4E: H524 and H69 cells were treated overnight with LB-100 (H524—5 μM and H69—20 μM) following by stimulation with 100 ng/ml HGF in 10 min. Cells were collected and lysed for WB analysis with pMET and total MET antibody. Pan-actin was used as loading control (n=3). FIG. 4F: H524 cell lysates (control, LB-100, carboplatin and combination (LB-100/carboplatin) were analyzed by western blots to check phosphorylation status of MET at Ser985 and Tyr1234/1235. Actin was used as a loading control (n=3). […]
Phenotype Microarrays (PMs) use a patented redox chemistry, employing cell respiration as a universal reporter. […] The redox assay provides for both amplification and precise quantitation of phenotypes. […]

The next series has as its system MET. In words: MET phosphorylation (Tyr 1234/1235) western blot after HGF stimulation. The series is classed as cell-based. As to conditions: HGF 10 min.
Description: as §1, with “FIG. 4E: H524 and H69 cells were treated overnight with LB-100 (H524—5 μM and H69—20 μM) following by stimulation with 100 ng/ml HGF in 10 min. Cells were collected and lysed for WB analysis with pMET and total MET antibody. Pan-actin was used as loading control (n=3).” left out
Whole cell lysates were prepared using RIPA lysis buffer and proteins were detected by immunoblotting using antibodies specific against PP2A A, PP2A C, Phospho-Histone H2AX (S139), MET, pMet (Tyr 1234/1235), Cleaved Caspase 3 and pan-Actin antibodies from CST (City of Industry, CA), Cleaved PARP1 (Santa Cruz Biotechnology, Dallas, Tex.) and pMET (Ser985) (ThermoFisher Scientific, Waltham, Mass.) were used as described previously (22).
A general note: Immunoblotting shows a protein as a band on a membrane.

Broadly, the IC50 is the point on the concentration scale where inhibition reaches its midpoint. For `C[NH+]1CCN(C(=O)C2C(C(=O)O)[C@H]3CC[C@@H]2O3)CC1` (stereo in doubt) [LB-100, 3-[(4-Methylpiperazin-1-yl)carbonyl]-7-oxabicyclo[2.2.1]heptane-2-carboxylic acid], the IC50 in the series on H69 cells [1] (Homo sapiens, NCI-H69, 72 h, read-out: Cytotoxicity IC50, H69, 72 hours) is approximately 20 µM. Besides, the IC50 in the series on H69 cells [1] (human, 72 h) was 22.6 µM. Further, in the series on H69 cells [2], the “reduction of glycogen consumption” value was “more than 2.7 fold” and the “reduction of α-D-Glucose consumption” value is “more than 6 fold”. In addition, the “level of HGF phosphorylation of MET” value in the series with MET (H69, LB100 20 μM) is given as “significantly decreased”. For the same compound, in the series on MET (H524, LB100 5 μM), the “MET basal and HGF activated phosphorylation” value is reported as “almost abrogated”.
